Laboratory results: US9248202B2, “Two-photon probe for detecting copper(II) ion and quantitative estimation of copper(II) ion in human tissue using the same” (Korea University Research and Business Foundation, priority 2014, dated 2016)

Assay: Absorption and fluorescence spectra, quantum yield, energy transfer
Type: physicochemical
Details: for φ (fluorescence quantum yield): uncertainty ± 15%; for λmax^abs: one-photon absorption; for λmax^t1: one-photon emission
Method: Absorption spectra were recorded using the Hewlett-Packard 8453 diode array spectrophotometer and fluorescence spectra were measured using the Amico-Bowman series 2 luminescence spectrometer a 1 cm standard quartz cell. The fluorescence quantum yield was determined using coumarin 307 and rhodamine B as references according to the literature method (J. N. Demas, G. A. Crosby, J. Phys. Chem. 1971, 75, 991).
(hereinafter, ‘ACCu2’), a compound of [Chemical Formula 12] (hereinafter, ‘FL’) and a compound of [Chemical Formula 13] (hereinafter, ‘IR’) in 1,4-dioxane, DMF, ethanol, EtOH/HEPES (9:1) and HEPES buffer ([HEPES]=20 mM, pH 7.0). Excitation wavelength was 420 nm. The solubility of ACCu2 in HEPES buffer ([HEPES]=20 mM, pH 7.0) as determined by the fluorescence method described in the literature (Kim, H. M.; Choo, H. J.; Jung, S. Y.; Ko, Y. G.; Park, W. H.; Jeon, S. J.; Kim, C. H.; Joo, T. H.; Cho, B. R. Chem Bio Chem 2007, 8, 553) was 8.0 μM, which was sufficient to stain cells.
To assess the origin of the spectral changes, the energy transfer efficiency (ETE) was calculated using Equation (1). The ETE was 93.4%.
In Equation (1), AIR and AIR′ are the absorbances of the IR moiety and IR, respectively, and FIR and FIR′ are the emission intensities of the IR moiety and IR, respectively, upon excitation at 373 nm.
The antenna effect in the one-photon (OP) (or TP) mode was 3.0 (or 3.1). The antenna effect was calculated by dividing the area of emission from the FL moiety upon excitation of the IR moiety at 373 nm (or 750 nm in the TP mode) by that collected from the direct excitation of FL at 461 nm (or 880 nm in the […]).

[1] = one-photon, excitation 373 nm, EtOH/HEPES (9:1, pH 7.0)

- φ (fluorescence quantum yield) (1,4-Dioxane (0.164)): 0.75
- red shift in the emission spectra with solvent polarity (1,4-dioxane to H2O): 69 nm
- φ (fluorescence quantum yield) (DMF (0.386)): 0.54
- φ (fluorescence quantum yield) (EtOH (0.654)): 0.34
- φ (fluorescence quantum yield) (EtOH/HEPES (9:1)): 0.22
- energy transfer efficiency (ETE) (FRET from IR to FL moiety, excitation at 373 nm, Equation (1)): 93.4%
- φ (fluorescence quantum yield) (HEPES buffer 20 mM, pH 7.0): 0.0028
- antenna effect (TP mode, 750 nm vs direct excitation 880 nm): 3.1
- antenna effect (one-photon (OP) mode, 373 nm vs direct excitation 461 nm): 3.0
- λmax^abs (1,4-Dioxane (0.164)): 380/437
- λmax^abs (DMF (0.386)): 371/456
- λmax^abs (EtOH (0.654)): 379/460
- λmax^abs (EtOH/HEPES (9:1)): 379/465
- λmax^abs (HEPES buffer 20 mM, pH 7.0): 380/453
- λmax^t1 (1,4-Dioxane (0.164)): 533 nm
- λmax^t1 (DMF (0.386)): 577 nm
- λmax^t1 (EtOH (0.654)): 578 nm
- λmax^t1 (EtOH/HEPES (9:1)): 585 nm
- λmax^t1 (HEPES buffer 20 mM, pH 7.0): 602 nm
- decrease of area of blue emission (400-450 nm) from that of IR [1]: 9.2 fold
- increase of area of red emission (550-650 nm) from that of FL [1]: 3.4 fold
- decrease of blue emission (two-photon (TP) mode): 13 fold
- increase of red emission (two-photon (TP) mode): 3.1 fold
Compound: COCCOCCOCCOc1ccc2c(ccc3cc(C(=O)N4CCN(C(=O)c5ccc(CNC(=O)c6cc7cc8ccc(N(C)C)cc8cc7oc6=O)nc5)CC4)c(=O)oc32)c1 [ACCu2]
